Results as given in patent US7074807B2, “Compositions and methods for inducing cell death” (Georgetown University, priority 1998, dated 2006).

Columns and labels:
MDA-MB 231 cells [1] = test: Cell viability assay (WST-1); type: cell-based, human; conditions: 10 mM, within 2 h
Procedure: FIG. 6. Effects of tempol and tempo on cell viability. […] Control cells were grown overnight in serum-free medium, followed by treatment with 1% ethanol for various times. Fresh serum-free medium (100 ul) was added to each well in all plates, including controls followed by the addition of WST-1 (10 ul). Plates were incubated for 2 h at 37° C. and the color solution developed by WST-1 was quantified using a MR 700 microplate reader at OD=450/600. Values shown are mean±s.d. of 6 determinations per treatment condition in a representative experiment, and the experiment was repeated three times.
Cell Viability Assay—Effects of nitroxide compounds on cell viability and proliferation were determined using a cell viability detection kit (4-[3-(4-Iodophenyl)-2-(4-nitrophenyl)-2H-5-tetrazolio]-1,3-benzene disulfonate, WST-1) according to the manufacturer's instructions (Boehringer Mannheim, Indianapolis, Ind.). Briefly, MDA-MB 231 cells were seeded onto 96 well plates at density of 10,000 cells per well and maintained overnight in 10% FBS containing medium. The cells were then washed twice with phosphate buffered saline and re-fed in serum-free medium. The following day, cells were treated for various times with tempol (10 mM) or tempo (10 mM), using six wells per treatment condition. […] Plates were incubated for 2 h at 37° C. and analyzed at OD=450/600 using a MR 700 microplate reader.

MDA-MB 231 cells [2] = test: Ceramide generation assay (DAG kinase assay); type: cell-based, human; conditions: 10 mM
Procedure: FIG. 8. Ceramide production in tempo-treated MDA-MB 231 cells. Logarithmically growing cells were cultured in serum-free medium overnight in 60 mm dishes, and treated with tempol (10 mM) and tempo (10 mM) for indicated times, followed by lipid extraction, and quantitation of ceramide by DAG kinase assay as described in experimental procedures. The organic phase extract containing the [γ^32P]-labeled ceramide was quantitated. Control cells were grown overnight in serum-free medium, followed by treatment with 1% ethanol for various times ranging from 0.5 h to 2 h. Tempol/tempo treatment values shown are the mean±s.d. of triplicate determinations, the value at each time point normalized to control (100%).
Ceramide Generation Assay—Ceramide production in MDA-MB 231 cells was determined by diacylglycerol (DAG) kinase assay according to a previously described procedure (Haimovitz-Friedman, A. et al., 1994, J. Exp. Med. 180, 525–535; Dressler, K. A. and Kolesnick, R. N., 1990, J. Biol. Chem. 265, 14917–14921). Briefly, MDA-MB 231 cells were split (1:2), and after 24 h, the cells were washed twice with PBS and serum-free medium was added, followed by incubation for additional 24 h. The cells (˜2×10^6/60 mm dish) were treated with tempo (10 mM) or tempol (10 mM) for various times. Following treatment, floating cells were collected and pelleted by centrifugation for 10 min at 1200 rpm, and attached cells were collected by scraping. Lipids were extracted from all cells (floating and attached) by incubation in 1 ml 100% ice-cold methanol. After a partial purification with chloroform, the extracted lipid in the organic phase was dried under N2 and was treated with a mild alkaline solution (0.1 N KOH in methanol) for 1 h at 37° C. to remove glycerolphospholipids. […] The spot containing the ceramide-1-phosphate was visualized by autoradiography, and the incorporated ^32P was removed by scraping, and quantified by Cerenkov counting. […]

Structure (SMILES) | decrease in the number of viable cells (MDA-MB 231 cells [1]) | increase over control in ceramide level (MDA-MB 231 cells [2]; 30 min, control normalized to 100%) | ceramide level over control (MDA-MB 231 cells [2]; 1 h, control normalized to 100%) | level of ceramide generated compared to control cells (MDA-MB 231 cells [2]; all time points)
CC1(C)CCCC(C)(C)N1[O] [tempo, 2,2,6,6-tetramethylpiperidine-N-oxyl] | > 50% | 54% | 71% | 
CC1(C)CC(O)CC(C)(C)N1[O] [tempol, 4-hydroxy-tempo, reference compound] | comparable to control cells |  |  | not significantly higher
